One test has as its target T1, EGFR del746-750 T790M (Homo sapiens, UniProt P00533, DEL746-750/T790M).
T1 construct: purchased Carna Biosciences 08-528
The test can be described thus: EGFR del746-750 T790M biochemical assay (Caliper mobility shift). The following applies: 5 μM ATP; apparent Ki (Morrison fit) converted by Cheng-Prusoff, Km of ATP 2.1 μM; read-out: EGFR(T790M/d746-750) Ki. An outline of the steps:
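Caliper mobility-shift read-out, with product electrophoretically resolved from substrate and measured. Reactions were quenched with 80 mM EDTA after 30 min at 22 °C.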

In test [1] the target is T2, phosphor-EGFR in H1975(L585R/T790M) mutant EGFR expressing cells (Homo sapiens, UniProt P00533, L858R/T790M).
T2 construct: host or cells: NCI-H1975
T2 sequence (P00533 25-1210 T790M/L858R): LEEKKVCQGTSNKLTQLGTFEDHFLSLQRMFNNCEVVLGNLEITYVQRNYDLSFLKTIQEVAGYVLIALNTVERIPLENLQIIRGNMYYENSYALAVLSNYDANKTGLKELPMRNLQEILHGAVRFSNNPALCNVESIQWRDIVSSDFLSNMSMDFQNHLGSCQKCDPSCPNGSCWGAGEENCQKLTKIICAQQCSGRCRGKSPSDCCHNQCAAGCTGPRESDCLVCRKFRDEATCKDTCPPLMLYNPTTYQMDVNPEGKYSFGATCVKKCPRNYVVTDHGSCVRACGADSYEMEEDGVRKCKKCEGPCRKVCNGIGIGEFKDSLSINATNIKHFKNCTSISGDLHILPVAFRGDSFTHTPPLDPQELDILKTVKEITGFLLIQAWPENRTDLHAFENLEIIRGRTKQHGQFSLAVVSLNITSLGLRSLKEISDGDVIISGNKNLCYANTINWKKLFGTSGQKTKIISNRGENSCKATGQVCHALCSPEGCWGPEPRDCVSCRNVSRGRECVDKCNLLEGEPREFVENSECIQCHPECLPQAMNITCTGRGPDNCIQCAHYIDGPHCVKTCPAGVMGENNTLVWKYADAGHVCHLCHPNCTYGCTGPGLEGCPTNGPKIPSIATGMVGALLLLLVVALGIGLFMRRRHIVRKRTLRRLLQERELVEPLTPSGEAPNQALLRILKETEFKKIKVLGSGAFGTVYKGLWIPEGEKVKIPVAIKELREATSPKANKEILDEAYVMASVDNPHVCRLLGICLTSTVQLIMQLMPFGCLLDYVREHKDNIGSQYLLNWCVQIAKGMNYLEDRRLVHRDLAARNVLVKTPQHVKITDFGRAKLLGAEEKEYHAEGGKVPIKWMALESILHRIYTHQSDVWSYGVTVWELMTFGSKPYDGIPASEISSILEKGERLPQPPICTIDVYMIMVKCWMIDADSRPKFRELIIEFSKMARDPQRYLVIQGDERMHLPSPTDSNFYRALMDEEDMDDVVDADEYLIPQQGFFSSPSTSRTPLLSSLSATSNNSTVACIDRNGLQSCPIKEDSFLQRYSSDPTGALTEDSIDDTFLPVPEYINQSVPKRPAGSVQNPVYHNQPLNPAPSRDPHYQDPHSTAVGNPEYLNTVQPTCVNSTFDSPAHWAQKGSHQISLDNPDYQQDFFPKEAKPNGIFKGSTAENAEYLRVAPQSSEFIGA
The experiment in a line: H1975 pEGFR MSD cellular assay. Type of test: cell-based. The following applies: NCI-H1975 cells, serum starved, 1 hour compound incubation, pEGFR Tyr1068 MSD; read-out: HI975 pEGFR EC50. A digest of the protocol:
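Phospho-EGFR read by MSD electrochemiluminescence: capture with anti-pEGFR antibody (overnight, 4° C), detection with SULFO-TAG anti-total EGFR (1 hour, room temperature). Before lysis, H1975 cells starved of serum overnight got compound for 1 hour at 37° C, 0.5% DMSO final. EC50 via four-parameter logistic regression of percent inhibition.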

A further test concerns the target T3, EGFR T790M L858R (Homo sapiens, UniProt P00533, L858R/T790M).
T3 construct: purchased Life Technologies PV4879
The test can be described thus: EGFR T790M L858R biochemical assay (Caliper mobility shift). To be noted: 5 μM ATP; apparent Ki (Morrison fit) converted by Cheng-Prusoff, Km of ATP 1.3 μM. A digest of the protocol:
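Caliper mobility-shift read-out, electrophoretic separation of substrate from product, after a 30-minute kinase reaction at 22 °C. EDTA at 80 mM terminates each reaction.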

The test system of test [2] is H1975 (EGFR T790M/L858R) cell proliferation. The test can be described thus: H1975 proliferation assay (Cell Titer-Glo). The following applies: Homo sapiens, NCI-H1975, 72 h, NCI-H1975 cells, 72 hour incubation, read-out: H1975 antiproliferative EC50. The format is cell-based. As for the experimental part:
H1975 Proliferation Assays
All cell culture reagents were purchased from Invitrogen/Gibco. Cells are cultured at 37° C. at 5% CO2 and split as recommended by ATCC.

Results on 15 compounds are retold here after patent US9951064B2, “Azaindazole compounds as inhibitors of T790M containing EGFR mutants” (Genentech, Inc., priority 2013, dated 2018).

SMILES strings stand for the structures.

T1 sequence (P00533 with tags, fused parts or gaps DEL746-750/T790M limits assumed): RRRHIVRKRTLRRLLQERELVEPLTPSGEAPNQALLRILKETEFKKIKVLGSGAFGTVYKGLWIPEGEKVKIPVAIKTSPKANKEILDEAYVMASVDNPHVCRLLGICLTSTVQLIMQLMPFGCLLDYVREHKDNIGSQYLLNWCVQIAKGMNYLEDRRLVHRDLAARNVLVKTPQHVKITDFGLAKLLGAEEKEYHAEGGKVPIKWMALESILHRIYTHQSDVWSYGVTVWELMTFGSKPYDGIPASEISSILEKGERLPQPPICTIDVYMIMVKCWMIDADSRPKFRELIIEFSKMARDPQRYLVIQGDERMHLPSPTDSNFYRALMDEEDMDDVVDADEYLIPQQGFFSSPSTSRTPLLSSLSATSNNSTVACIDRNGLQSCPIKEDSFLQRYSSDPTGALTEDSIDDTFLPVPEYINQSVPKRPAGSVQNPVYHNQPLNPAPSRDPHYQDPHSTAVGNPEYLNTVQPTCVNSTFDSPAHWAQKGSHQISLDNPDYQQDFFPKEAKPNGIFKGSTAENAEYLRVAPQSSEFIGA
T3 sequence (P00533 25-1210 T790M/L858R): as the sequence (P00533 25-1210 T790M/L858R) above

On to `CC[C@@H](C)n1nc(N2CC3(COC3)C2)c2cnc(Nc3ccnc(OCC(C)(C)S(C)(=O)=O)n3)cc21` [Example 96, [1-((R)-sec-Butyl)-3-(2-oxa-6-azaspiro[3.3]hept-6-yl)-1H-pyrazolo[4,3-c]pyridin-6-yl]-[2-(2-methanesulfonyl-2-methylpropoxy)pyrimidin-4-yl]amine], for which the Ki on EGFR del746-750 T790M was determined as 17.2 nM; on EGFR T790M L858R, 4.6 nM. The EC50 in test [1] was 387 nM; in test [2], 1240 nM.

As for `CC(C)n1nc(N2CCOCC2)c2cnc(Nc3ccnc(NCC(C)(C)S(C)(=O)=O)n3)cc21` [Example 100, N^4-(1-Isopropyl-3-morpholin-4-yl-1H-pyrazolo[4,3-c]pyridin-6-yl)-N^2-(2-methanesulfonyl-2-methylpropyl)pyrimidine-2,4-diamine], the Ki at EGFR del746-750 T790M was determined as 7.2 nM; on EGFR T790M L858R, 8.7 nM. For the same compound, the EC50 in test [1] turned out to be 1060 nM; in test [2] it was 1260 nM.

Turning to `CC(C)n1nc(N2CCCC2=O)c2cnc(Nc3ccnc(-c4cnn(S(=O)(=O)C5CC5)c4)n3)cc21` [Example 106, 1-(6-(2-(1-(Cyclopropylsulfonyl)-1H-pyrazol-4-yl)pyrimidin-4-ylamino)-1-isopropyl-1H-pyrazolo[4,3-c]pyridin-3-yl)pyrrolidin-2-one], the Ki at EGFR del746-750 T790M came out at 1.6 nM; at EGFR T790M L858R, 2.1 nM. In addition, the values for the EC50 in test [1] and in test [2] were 57.8 nM and 232 nM, respectively.

Consider `CC(C)n1nc(NC2CCS(=O)(=O)C2)c2cnc(Nc3ccnc(-c4cnn(S(=O)(=O)C5CC5)c4)n3)cc21` (stereo not drawn) [Example 107, 3-((6-((2-(1-(Cyclopropylsulfonyl)-1H-pyrazol-4-yl)pyrimidin-4-yl)amino)-1-isopropyl-1H-pyrazolo[4,3-c]pyridin-3-yl)amino)tetrahydrothiophene 1,1-dioxide], for which the Ki was found to be 1.5 nM on EGFR del746-750 T790M and 2 nM at EGFR T790M L858R. The values for the EC50 in test [1] and in test [2] were 386 nM and 1640 nM, respectively.

With `CC1CN(c2nn(C(C)C)c3cc(Nc4ccnc(-c5cnn(S(=O)(=O)C6CC6)c5)n4)ncc23)C(=O)N1` (stereo not drawn) [Example 108, 1-(6-(2-(1-(Cyclopropylsulfonyl)-1H-pyrazol-4-yl)pyrimidin-4-ylamino)-1-isopropyl-1H-pyrazolo[4,3-c]pyridin-3-yl)-4-methylimidazolidin-2-one], the values for the Ki on EGFR del746-750 T790M and on EGFR T790M L858R were 1.7 nM and 1.9 nM, respectively. The EC50 in test [1] worked out at 113 nM; in test [2], 377 nM.

As to `CC(Nc1nn(C(C)C)c2cc(Nc3ccnc(-c4cnn(S(=O)(=O)C5CC5)c4)n3)ncc12)C(N)=O` (stereo not drawn) [Example 109, 2-(6-(2-(1-(Cyclopropylsulfonyl)-1H-pyrazol-4-yl)pyrimidin-4-ylamino)-1-isopropyl-1H-pyrazolo[4,3-c]pyridin-3-ylamino)propanamide], the Ki amounted to 1.3 nM on EGFR del746-750 T790M and 1.8 nM on EGFR T790M L858R. Further, the EC50 in test [1] turned out to be 788 nM; in test [2], 4620 nM.

`CC(C)n1nc(N2CC[S+]([O-])CC2)c2cnc(Nc3ccnc(-c4cnn(S(=O)(=O)C5CC5)c4)n3)cc21` [Example 110, 4-(6-((2-(1-(Cyclopropylsulfonyl)-1H-pyrazol-4-yl)pyrimidin-4-yl)amino)-1-isopropyl-1H-pyrazolo[4,3-c]pyridin-3-yl)thiomorpholine 1-oxide]: the results for the Ki on EGFR del746-750 T790M and at EGFR T790M L858R were 1.1 nM and 1.7 nM, respectively. Besides, the EC50 in test [1] was 162 nM; in test [2], 835 nM.

Turning to `CC(C)n1nc(N2CCS(=N)(=O)CC2)c2cnc(Nc3ccnc(-c4cnn(S(=O)(=O)C5CC5)c4)n3)cc21` [Example 111, 4-(6-((2-(1-(Cyclopropylsulfonyl)-1H-pyrazol-4-yl)pyrimidin-4-yl)amino)-1-isopropyl-1H-pyrazolo[4,3-c]pyridin-3-yl)-1-iminothiomorpholine 1-oxide], the Ki at EGFR del746-750 T790M turned out to be 1 nM; at EGFR T790M L858R, 1.7 nM. Moreover, the EC50 in test [1] was 560 nM; in test [2], 949 nM.

As for `CC(C)n1nc(N2CCC3(CCNC3=O)C2)c2cnc(Nc3ccnc(-c4cnn(S(=O)(=O)C5CC5)c4)n3)cc21` (stereo not drawn) [Example 112, 7-(6-((2-(1-(Cyclopropylsulfonyl)-1H-pyrazol-4-yl)pyrimidin-4-yl)amino)-1-isopropyl-1H-pyrazolo[4,3-c]pyridin-3-yl)-2,7-diazaspiro[4.4]nonan-1-one], the Ki on EGFR del746-750 T790M stood at 1 nM; at EGFR T790M L858R, 1.1 nM. Besides, the concentration giving a half-maximal response (EC50) in test [1] came out at 62.6 nM; in test [2], 740 nM.

As for `CC(O)C1CN(c2nn(C(C)C)c3cc(Nc4ccnc(-c5cnn(S(=O)(=O)C6CC6)c5)n4)ncc23)C1` (stereo not drawn) [Example 113, 1-(1-(6-(2-(1-(Cyclopropylsulfonyl)-1H-pyrazol-4-yl)pyrimidin-4-ylamino)-1-isopropyl-1H-pyrazolo[4,3-c]pyridin-3-yl)azetidin-3-yl)ethanol], the results for the Ki on EGFR del746-750 T790M and at EGFR T790M L858R were 0.5 nM and 0.6 nM, respectively. Moreover, the figures for the EC50 in test [1] and in test [2] were 27.6 nM and 266 nM, respectively.

`CC(C)n1nc(N2CC[C@@H](O)C2)c2cnc(Nc3ccnc(-c4cnn(S(=O)(=O)C5CC5)c4)n3)cc21` [Example 114, (R)-1-(6-(2-(1-(Cyclopropylsulfonyl)-1H-pyrazol-4-yl)pyrimidin-4-ylamino)-1-isopropyl-1H-pyrazolo[4,3-c]pyridin-3-yl)pyrrolidin-3-ol]: the results for the Ki on EGFR del746-750 T790M and at EGFR T790M L858R were 0.7 nM and 0.8 nM, respectively. Also, the EC50 in test [1] amounted to 5.6 nM; in test [2], 190 nM.

As for `CC(C)n1nc(N2CCC3(CNC(=O)C3)C2)c2cnc(Nc3ccnc(-c4cnn(S(=O)(=O)C5CC5)c4)n3)cc21` (stereo not drawn) [Example 115, 7-(6-((2-(1-(Cyclopropylsulfonyl)-1H-pyrazol-4-yl)pyrimidin-4-yl)amino)-1-isopropyl-1H-pyrazolo[4,3-c]pyridin-3-yl)-2,7-diazaspiro[4.4]nonan-3-one], the Ki at EGFR del746-750 T790M was found to be 0.9 nM; at EGFR T790M L858R, 1.1 nM. For the same compound, the EC50 in test [1] worked out at 221 nM; in test [2] it was 1790 nM.

`CC(C)n1nc(NC(=O)C(C)(C)O)c2cnc(Nc3ccnc(-c4cnn(S(=O)(=O)C5CC5)c4)n3)cc21` [Example 116, N-(6-(2-(1-(Cyclopropylsulfonyl)-1H-pyrazol-4-yl)pyrimidin-4-ylamino)-1-isopropyl-1H-pyrazolo[4,3-c]pyridin-3-yl)-2-hydroxy-2-methylpropanamide]: the Ki on EGFR del746-750 T790M stood at 2 nM; on EGFR T790M L858R, 2.6 nM. Further, the EC50 in test [1] is 629 nM; in test [2], 2080 nM.

Turning to `CC(C)n1nc(N2CC(N3CCOCC3)C2)c2cnc(Nc3ccnc(-c4cnn(S(=O)(=O)C5CC5)c4)n3)cc21` [Example 117, N-(2-(1-(Cyclopropylsulfonyl)-1H-pyrazol-4-yl)pyrimidin-4-yl)-1-isopropyl-3-(3-morpholinoazetidin-1-yl)-1H-pyrazolo[4,3-c]pyridin-6-amine], the Ki at EGFR del746-750 T790M was determined as 1.1 nM; at EGFR T790M L858R it was 1.3 nM. The EC50 in test [1] amounted to 54.9 nM; in test [2] it was 432 nM.

As for `CCN1CCN(c2nn(C(C)C)c3cc(Nc4ccnc(-c5cnn(S(=O)(=O)C6CC6)c5)n4)ncc23)CC1` [Example 118, N-(2-(1-(Cyclopropylsulfonyl)-1H-pyrazol-4-yl)pyrimidin-4-yl)-3-(4-ethylpiperazin-1-yl)-1-isopropyl-1H-pyrazolo[4,3-c]pyridin-6-amine], the Ki on EGFR del746-750 T790M came out at 1.1 nM; on EGFR T790M L858R, 1.4 nM. In addition, the half-maximal effective concentration (EC50) amounted to 134 nM in test [1] and 1010 nM in test [2].
